Source: ChEMBL document CHEMBL5375957, “Optimization of Novel α7 Nicotinic Acetylcholine Receptor Positive Allosteric Modulators and the Discovery of a Preclinical Development Candidate Molecule (RGH-560)” (J Med Chem, 2023)
≈ marks a conversion by molar mass, not a printed value.

Tests used:
[1] = Kinetic solubility of compound at pH 7.4 incubated for 2 hrs by UV-HPLC analysis; assay type: physicochemical; conditions: buffer, read-out: Kinetic_solubility
[2] = Metabolic stability in human liver microsome assessed as intrinsic clearance measured per mg of protein incubated for 40 mins; assay type: ADME; conditions: liver microsomes, read-out: CLH
[3] = molecular target: T1, Neuronal acetylcholine receptor subunit alpha-7 (Homo sapiens, UniProt P36544); experiment: Positive allosteric modulator activity at human alpha7 nAChR expressed in Flp-In HEK293 cells assessed as increase in calcium influx at 10 uM incubated for 10 mins by fluorescence based analysis relative to control; assay type: cell-based
[4] = molecular target: T1, Neuronal acetylcholine receptor subunit alpha-7; experiment: Positive allosteric modulator activity at human alpha7 nAChR expressed in Flp-In HEK293 cells assessed as increase in calcium influx incubated for 10 mins by fluorescence based analysis; assay type: cell-based
[5] = Metabolic stability in NMRI mouse liver microsome assessed as intrinsic clearance measured per mg of protein incubated for 40 mins; assay type: ADME; conditions: liver microsomes, read-out: CLH
[6] = Metabolic stability in Wistar rat liver microsome assessed as intrinsic clearance measured per mg of protein incubated for 40 mins; assay type: ADME; conditions: liver microsomes, read-out: CLH
[7] = filed as positive allosteric modulator

T1 sequence (P36544 whole entry): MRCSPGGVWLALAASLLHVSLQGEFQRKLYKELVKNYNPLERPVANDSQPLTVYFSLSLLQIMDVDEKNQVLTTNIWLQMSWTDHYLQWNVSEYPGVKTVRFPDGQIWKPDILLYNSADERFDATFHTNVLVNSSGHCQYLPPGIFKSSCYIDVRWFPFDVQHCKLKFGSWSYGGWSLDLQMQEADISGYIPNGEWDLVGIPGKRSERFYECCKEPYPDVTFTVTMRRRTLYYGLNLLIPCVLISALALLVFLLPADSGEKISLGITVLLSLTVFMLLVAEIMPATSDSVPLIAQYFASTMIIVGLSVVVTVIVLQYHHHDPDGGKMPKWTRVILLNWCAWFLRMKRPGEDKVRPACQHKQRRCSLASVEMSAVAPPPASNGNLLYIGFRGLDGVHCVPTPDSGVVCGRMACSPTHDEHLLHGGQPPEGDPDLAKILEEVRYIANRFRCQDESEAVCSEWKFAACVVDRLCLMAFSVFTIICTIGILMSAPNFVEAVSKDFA

Row | solubility kinetic at 2 h [1] | microsomal CLint [2] | Emax [3, 7] | Emax [3] | EC50 [4] | microsomal CLint [5] | microsomal CLint [6] | Compound
1 | 0.2 µM (≈ 0.0863 µg/mL) | 28 µL/min/mg | 83% |  |  |  |  | CCn1ccc2cc(CNC(=O)N3CC(COc4ccc(C(F)(F)F)cc4)C3)ccc21
2 | 4.4 µM (≈ 1.78 µg/mL) |  |  | 1% |  |  |  | Cc1ccc(OCC2CN(C(=O)NCc3ccc4[nH]c5c(c4c3)CCCC5)C2)cc1
3 | 14.2 µM (≈ 6.14 µg/mL) |  |  |  | 1200 nM |  |  | Cc1cn(C)c2ncc(CNC(=O)N3CC(COc4ccc(C(F)(F)F)cc4)C3)cc12
4 | 78.1 µM (≈ 31.6 µg/mL) | 37 µL/min/mg |  |  | 150 nM | 78 µL/min/mg | 63 µL/min/mg | O=C(NCc1ccc2[nH]ccc2c1)N1CC(COc2ccc(C(F)(F)F)cn2)C1
5 | 9.2 µM (≈ 3.61 µg/mL) |  |  |  | 590 nM |  |  | Cn1ccc2cc(CNC(=O)N3CC(COc4ccc(F)c(C#N)c4)C3)ccc21
6 | 20.4 µM (≈ 9.05 µg/mL) | 49 µL/min/mg |  | 20% |  |  | 38 µL/min/mg | Cn1cc(C#N)c2cc(CNC(=O)N3CC(COc4ccc(C(F)(F)F)cc4)C3)cnc21
7 | < 0.1 µM | 30 µL/min/mg |  |  | 200 nM | 140 µL/min/mg | 96 µL/min/mg | Cn1cc(Cl)c2cc(CNC(=O)N3CC(COc4ccc(C(F)(F)F)cc4)C3)ccc21
8 | 7.2 µM (≈ 3.26 µg/mL) | 97 µL/min/mg |  |  | 390 nM |  |  | Cn1cc(Cl)c2cc(CNC(=O)N3CC(COc4ccc(C(F)(F)F)cc4)C3)cnc21
9 | 9.7 µM (≈ 3.98 µg/mL) | 128 µL/min/mg |  |  |  |  |  | Cn1cc(Cl)c2cc(CNC(=O)N3CC4(CC(=O)c5ccccc5O4)C3)ccc21
10 | 51.5 µM (≈ 19.3 µg/mL) | 11 µL/min/mg |  |  | 140 nM | 100 µL/min/mg | 52 µL/min/mg | Cc1cc2cc(CNC(=O)N3CC4(CC(=O)c5ccccc5O4)C3)ccc2[nH]1
11 | 31 µM (≈ 12.2 µg/mL) |  |  |  | 2800 nM |  |  | Cn1ccc2cc(CNC(=O)N3CC(COc4ccc(F)cc4C#N)C3)ccc21
12 | 0.2 µM (≈ 0.0906 µg/mL) |  |  | 4% |  |  |  | Cn1c(Cl)cc2cc(CNC(=O)N3CC(COc4ccc(C(F)(F)F)cc4)C3)cnc21
13 | 0.6 µM (≈ 0.259 µg/mL) | 54 µL/min/mg |  |  | 300 nM |  |  | Cc1cc2cc(CNC(=O)N3CC(COc4ccc(C(F)(F)F)cc4)C3)cnc2n1C
14 | 0.2 µM (≈ 0.0904 µg/mL) |  |  | 7% |  |  |  | Cn1c(Cl)cc2cc(CNC(=O)N3CC(COc4ccc(C(F)(F)F)cc4)C3)ccc21
15 | 0.1 µM (≈ 0.0436 µg/mL) | 107 µL/min/mg |  |  | 55 nM |  |  | Cn1cc(F)c2cc(CNC(=O)N3CC(COc4ccc(C(F)(F)F)nc4)C3)ccc21
16 | 4.5 µM (≈ 1.97 µg/mL) | 29 µL/min/mg |  |  | 260 nM |  |  | O=C(NCc1cnc2[nH]c(Cl)cc2c1)N1CC(COc2ccc(C(F)(F)F)cc2)C1
17 | 0.5 µM (≈ 0.209 µg/mL) | 61 µL/min/mg |  |  | 80 nM |  |  | Cn1ccc2cc(CNC(=O)N3CC(COc4ccc(Cl)c(Cl)c4)C3)ccc21
18 | 87.1 µM (≈ 31.5 µg/mL) |  | 58% |  |  |  |  | O=C1CC2(CN(C(=O)NCc3ccc4[nH]ccc4c3)C2)Oc2ccccc21
19 | 21.1 µM (≈ 8.35 µg/mL) | 22 µL/min/mg |  |  | 230 nM | 178 µL/min/mg | 176 µL/min/mg | O=C1CC2(CN(C(=O)NCc3ccc4[nH]c(Cl)cc4c3)C2)Oc2ccccc21
20 | 5.3 µM (≈ 2.34 µg/mL) | 43 µL/min/mg |  |  | 2200 nM |  |  | Cn1cc(C#N)c2cc(CNC(=O)N3CC(COc4ccc(C(F)(F)F)cc4)C3)ccc21
21 | 12 µM (≈ 5.25 µg/mL) | 25 µL/min/mg |  |  | 500 nM | 43 µL/min/mg | 23 µL/min/mg | O=C(NCc1ccc2[nH]cc(Cl)c2c1)N1CC(COc2ccc(C(F)(F)F)cc2)C1
22 | 5.1 µM (≈ 2.48 µg/mL) | 16 µL/min/mg |  | 1% |  |  | 14 µL/min/mg | Cc1nnc(-c2cc3cc(CNC(=O)N4CC(COc5ccc(C(F)(F)F)cc5)C4)ccc3[nH]2)o1
23 | 0.1 µM (≈ 0.0476 µg/mL) |  |  | 0% |  |  |  | COCCc1cc2cc(CNC(=O)N3CC(COc4ccc(C(F)(F)F)cc4)C3)ccc2n1C

Row | solubility kinetic at 2 h [1] | microsomal CLint [2] | Emax [3, 7] | Emax [3] | EC50 [4] | microsomal CLint [5] | microsomal CLint [6] | Compound
24 | 1.2 µM (≈ 0.462 µg/mL) | 46 µL/min/mg |  |  | 150 nM |  |  | Cn1ccc2cc(CNC(=O)N3CC(COc4ccc(F)c(F)c4)C3)ccc21
25 | 61.1 µM (≈ 23.5 µg/mL) | 34 µL/min/mg |  |  | 360 nM | 57 µL/min/mg | 53 µL/min/mg | Cn1ccc2cc(CNC(=O)N3CC(COc4ccc(Cl)cc4)C3)cnc21
26 | 10 µM (≈ 4.1 µg/mL) |  |  |  | 460 nM |  |  | Cc1[nH]c2ccc(CNC(=O)N3CC4(CC(=O)c5ccccc5O4)C3)cc2c1Cl
27 | 2.4 µM (≈ 1.06 µg/mL) |  |  | 15% |  |  |  | Cn1c(C#N)cc2cc(CNC(=O)N3CC(COc4ccc(C(F)(F)F)cc4)C3)ccc21
28 | 16.3 µM (≈ 6.87 µg/mL) | 24 µL/min/mg |  |  | 250 nM | 47 µL/min/mg | 39 µL/min/mg | O=C(NCc1ccc2[nH]ccc2c1)N1CC(COc2ccc(C(F)(F)F)cc2F)C1
29 | 0.2 µM (≈ 0.0871 µg/mL) |  |  |  | 45 nM |  |  | Cn1ccc2cc(CNC(=O)N3CC(COc4ccc(C(F)(F)F)c(F)c4)C3)ccc21
30 | 0.9 µM (≈ 0.377 µg/mL) | 61 µL/min/mg |  |  | 40 nM |  |  | Cn1ccc2cc(CNC(=O)N3CC(COc4ccc(C(F)(F)F)cn4)C3)ccc21
31 | 2.9 µM (≈ 1.3 µg/mL) | 43 µL/min/mg |  | 30% |  |  | 48 µL/min/mg | COCc1cc2cc(CNC(=O)N3CC(COc4ccc(C(F)(F)F)cc4)C3)cnc2[nH]1
32 | 45.5 µM (≈ 17.5 µg/mL) | 48 µL/min/mg |  |  | 270 nM |  |  | Cn1ccc2cc(CNC(=O)N3CC(COc4ccc(F)cc4F)C3)ccc21
33 | 1.9 µM (≈ 0.843 µg/mL) | 25 µL/min/mg |  | 3% |  |  | 56 µL/min/mg | O=C(NCc1ccc2[nH]c(C3CC3)cc2c1)N1CC(COc2ccc(C(F)(F)F)cc2)C1
34 | 1.8 µM (≈ 0.753 µg/mL) | 27 µL/min/mg |  |  | 270 nM |  |  | Cn1ccc2cc(CNC(=O)N3CC(COc4ccc(C(F)(F)F)nc4)C3)ccc21
35 | 41 µM (≈ 18.6 µg/mL) | 27 µL/min/mg |  |  | 220 nM |  | 23 µL/min/mg | O=C(NCc1ccc2[nH]c(C(F)F)cc2c1)N1CC(COc2ccc(C(F)(F)F)cc2)C1
36 | 13.4 µM (≈ 5.06 µg/mL) | 323 µL/min/mg |  |  | 490 nM |  |  | Cc1ccc(OCC2CN(C(=O)NCc3ccc4[nH]c(C)c(C)c4c3)C2)cc1
37 | 0.6 µM (≈ 0.291 µg/mL) |  |  | 3% |  |  |  | O=C(NCc1ccc2c(ccn2CC(F)(F)F)c1)N1CC(COc2ccc(C(F)(F)F)cc2)C1
38 | 86.8 µM (≈ 35.1 µg/mL) |  |  |  | 1100 nM |  |  | O=C(NCc1ccc2[nH]ccc2c1)N1CC(COc2ccc(C(F)(F)F)nc2)C1
39 | 6.9 µM (≈ 3.08 µg/mL) |  |  | 0% |  |  |  | NC(=O)c1cc2cc(CNC(=O)N3CC(COc4ccc(C(F)(F)F)cc4)C3)ccc2[nH]1
40 | 30.9 µM (≈ 12.7 µg/mL) | 8 µL/min/mg |  |  |  | 121 µL/min/mg | 80 µL/min/mg | Cc1cc2cc(CNC(=O)N3CC4(CC(=O)c5cc(F)cc(F)c5O4)C3)ccc2[nH]1
41 | 49.9 µM (≈ 20.2 µg/mL) |  |  |  | 3100 nM |  |  | O=C(NCc1cnc2[nH]ccc2c1)N1CC(COc2ccc(C(F)(F)F)cc2)C1
42 | 2 µM (≈ 0.835 µg/mL) | 29 µL/min/mg |  |  | 15 nM | 94 µL/min/mg | 34 µL/min/mg | Cc1cc2cc(CNC(=O)N3CC(COc4ccc(C(F)(F)F)cc4)C3)ccc2[nH]1
43 | 0.9 µM (≈ 0.401 µg/mL) |  |  | 1% |  |  |  | CC(C)n1ccc2cc(CNC(=O)N3CC(COc4ccc(C(F)(F)F)cc4)C3)ccc21
44 | 36.4 µM (≈ 14.3 µg/mL) | 18 µL/min/mg |  |  |  | 51 µL/min/mg | 34 µL/min/mg | Cc1cc2cc(CNC(=O)N3CC4(CC(=O)c5cc(F)ccc5O4)C3)ccc2[nH]1
45 |  | 41 µL/min/mg |  |  | 70 nM |  |  | Cc1cc2cc(CNC(=O)N3CC(COc4ccc(C(F)(F)F)cc4)C3)ccc2n1C
46 | 0.3 µM (≈ 0.138 µg/mL) |  |  | 0% |  |  |  | Cn1c(C2CC2)cc2cc(CNC(=O)N3CC(COc4ccc(C(F)(F)F)cc4)C3)cnc21
